# From patent publication US8703951B2, “Synthesis of 4H-benzo[D]pyrrolo[1,2-A]thiazoles and indolizino[6,7-b]indole derivatives and their use as antitumor therapeutic agents” (Academia Sinica, priority 2011, dated 2014)
# Read-outs that look alike come from different tables or passages of the source.
# Experiments:
# breast carcinoma MX-1 = test: In vitro cytotoxicity, SRB assay, MX-1; assay type: cell-based, human
# Text: (§1) Human colon carcinoma HCT-116 cells and human prostate adenocarcinoma PC-3 cells were obtained from American Type Culture Collection (ATCC, Rockville, Md.). Human mammary carcinoma (MX-1) tumor cells were obtained from MSKCC cell bank. The CCRF-CEM human lymphoblastic leukemia cells and their vinblastine resistant subline (CCRF-CEM/VBL, 680-fold resistance in vitro) were obtained from Dr. William Beck of the University of Illinois, Chicago, and CCRF-CEM/Taxol (330-fold resistance in vitro). Resistant cells CCRF-CEM/taxol were produced by exposing the parent cells to increasing sublethal concentration (IC50-IC90) of paclitaxel for six months.
# (§2) In preparation for in vitro cytotoxicity assays, cells were cultured at an initial density 2−5×10^4 cells per milliliter. They were maintained in a 5% CO2-humidified atmosphere at 37° C. in RPMI medium 1640 (GIBCO/BRL) containing penicillin (100 units/mL), streptomycin (100 μg/mL, GIBCO/BRL), and 5% heat-inactivated FBS. For cells grown in suspension (such as CCRF-CEM and its sublines), cytotoxicity was measured, by using XTT microculture method^23 in 96-well microtiter plates.
# (§3) The cytotoxic effects of the newly synthesized compounds were determined in T-cell acute lymphocytic leukemia (CCRF-CEM) and their resistant subcell lines (CCRF-CEM/Taxol and CCRF-CEM/VBL) by the XTT assay^24 and human solid tumor cells (i.e. breast carcinoma MX-1 and colon carcinoma HCT-116) by the SRB assay^25 in a 72 h incubation using a microplate spectrophotometer as described previously.^25 After the addition of phenazine methosulfate-XTT solution, incubated at 37° C. for 6 h and absorbance at 450 and 630 nm was detected on a microplate reader (EL 340). The cytotoxicity of the newly synthesized compounds against non-small cell lung carcinoma H1299, prostate cancer PC3, oral cancer OECM-1 and glioma U87 were determined by the Alamar blue assay^26 in a 72 h incubation using a microplate spectrophotometer as described previously. After the addition of alamar blue solution, it was incubated at 37° C. for 6 h. Absorbance at 570 and 600 nm was detected on a microplate reader. IC50 values were determined from dose-effect relationship at six or seven concentrations of each drug using the CompuSyn software by Chou and Martin^27 based on the median-effect principle and plot.^28,29 Ranges given for Cisplatin were mean±SE (n=4).
# [1] = system: human lymphoblastic leukemia (CCRF-CEM); test: In vitro cytotoxicity, XTT assay, CCRF-CEM; assay type: cell-based
# Text: as §1, §2, §3
# colon carcinoma HCT-116 = test: In vitro cytotoxicity, SRB assay, HCT-116; assay type: cell-based, human
# Text: as §1, §2, §3
# CCRF-CEM/VBL = test: In vitro cytotoxicity, XTT assay, CCRF-CEM/VBL; assay type: cell-based, human; conditions: Table 5; for fold of cross-resistant vs IC50 of the parent cell line, CCRF-CEM/VBL: number in brackets; for IC50: vinblastine-resistant subline, XTT, 72 h, read-out: Cell Growth inhibition (IC50 μM) CCRF-CEM/VBL
# Text: as §1, §2, §3
# CCRF-CEM/Taxol = test: In vitro cytotoxicity, XTT assay, CCRF-CEM/Taxol; assay type: cell-based, human; conditions: Table 5; for IC50: Taxol-resistant subline, XTT, 72 h, read-out: Cell Growth inhibition (IC50 μM) CCRF-CEM/Taxol; for fold of cross-resistant vs IC50 of the parent cell line, CCRF-CEM/Taxol: number in brackets
# Text: as §1, §2, §3
# oral cancer OECM-1 = test: In vitro cytotoxicity, Alamar blue assay, OECM-1; assay type: cell-based, human
# Experimental: (§4) Prostate cancer PC3, non-small cell lung carcinoma cells H1299, and human glioma cells U87 were purchased from the American Type Culture Collection (Rockville, Md.). OECM-1 (human gingival squamous cell carcinoma cells) was obtained from Dr C.-L. Meng (National Defense Medical College, Taiwan).^22
# as §2, §3
# [2] = system: non-small cell lung carcinoma H1299; test: In vitro cytotoxicity, Alamar blue assay, H1299; assay type: cell-based, human
# Experimental: as §4, §2, §3
# glioma U87 = test: In vitro cytotoxicity, Alamar blue assay, U87; assay type: cell-based, human
# Experimental: as §4, §2, §3
# prostate cancer PC3 = test: In vitro cytotoxicity, Alamar blue assay, PC3; assay type: cell-based, human
# Experimental: as §4, §2, §3
# [3] = Table 7, 72 h, read-out: IC50 (μM) CCRF/CEM
# [4] = Table 5, 72 h incubation, read-out: Cell Growth inhibition (IC50 μM) CCRF-CEM
# [5] = Homo sapiens, OECM1, Table 6, 72 h
# [6] = Homo sapiens, CCRF-CEM, Table 5, 72 h incubation, read-out: Cell Growth inhibition (IC50 μM) CCRF-CEM
# [7] = Homo sapiens, NCI-H1299, Table 6, 72 h
compound,measurement,setting,value
"CCNC(=O)OCc1c(COC(=O)NCC)c(-c2ccc(Cl)cc2)n2c1Cc1c(n(C)c3ccccc13)C2 [Compound 27d, [3-(4-Chlorophenyl)-6-methyl-6,11-dihydro-5H-indolizino[6,7-b]indole-1,2-diyl]bis(methylene)bis(ethylcarbamate)]",IC50,"breast carcinoma MX-1; Table 7, 72 h",1.83 ± 0.082 µM
same,IC50,[1]; [3],0.35 ± 0.013 µM
same,IC50,"colon carcinoma HCT-116; Table 7, 72 h",1.17 ± 0.009 µM
"CCNC(=O)OCc1c(COC(=O)NCC)c2sc3ccccc3n2c1C [Compound 19a, (1-Methylbenzo[d]pyrrolo[2,1-b]thiazole-2,3-diyl)bis(methylene)bis(ethylcarbamate)]",IC50,[1]; [4],0.33 ± 0.01 µM
same,"fold of cross-resistant vs IC50 of the parent cell line, CCRF-CEM/VBL",CCRF-CEM/VBL,1.30 ×
same,IC50,CCRF-CEM/VBL,0.43 ± 0.003 µM
same,IC50,CCRF-CEM/Taxol,0.45 ± 0.013 µM
same,"fold of cross-resistant vs IC50 of the parent cell line, CCRF-CEM/Taxol",CCRF-CEM/Taxol,1.30 ×
"OCc1c(CO)c2sc3ccccc3n2c1-c1ccc(F)c(F)c1 [Compound 18d, (1-(3,4-Difluorophenyl)benzo[d]pyrrolo[2,1-b]thiazole-2,3-diyl)dimethanol]",IC50,oral cancer OECM-1; [5],8.48 ± 0.67 µM
same,IC50,[1]; [6],0.19 ± 0.02 µM
same,IC50,[2]; [7],21.4 ± 3.74 µM
same,IC50,"glioma U87; Homo sapiens, Table 6, 72 h",17.4 ± 1.86 µM
same,IC50,"prostate cancer PC3; Homo sapiens, Table 6, 72 h",15.2 ± 1.86 µM
same,IC50,"CCRF-CEM/VBL; Homo sapiens, CCRF-CEM",0.28 ± 0.006 µM
same,"fold of cross-resistant vs IC50 of the parent cell line, CCRF-CEM/VBL",CCRF-CEM/VBL,1.47 ×
same,IC50,"CCRF-CEM/Taxol; Homo sapiens, CCRF-CEM",0.19 ± 0.004 µM
same,"fold of cross-resistant vs IC50 of the parent cell line, CCRF-CEM/Taxol",CCRF-CEM/Taxol,100 ×
"CC(C)NC(=O)OCc1c(COC(=O)NC(C)C)c(-c2ccc(Cl)cc2)n2c1Cc1c(n(C)c3ccccc13)C2 [Compound 28d, [3-(4-Chlorophenyl)-6-methyl-6,11-dihydro-5H-indolizino[6,7-b]indole-1,2-diyl]bis(methylene) (isopropylcarbamate)]",IC50,"breast carcinoma MX-1; Table 7, 72 h",12.39 ± 0.05 µM
same,IC50,[1]; [3],0.437 ± 0.003 µM
same,IC50,"colon carcinoma HCT-116; Table 7, 72 h",3.06 ± 0.067 µM
"N.N.[Cl][Pt][Cl] [Cisplatin, reference compound]",IC50,"oral cancer OECM-1; Table 6, 72 h",2.44 ± 0.53 µM
same,IC50,"oral cancer OECM-1; Table 7, 72 h, read-out: IC50 (μM) OECM1",2.44 ± 0.53 µM
same,IC50,"[2]; Table 6, 72 h",16.5 ± 0.9 µM
same,IC50,"[2]; Table 7, 72 h",16.5 ± 0.9 µM
same,IC50,"glioma U87; Table 6, 72 h",54.6 ± 3.33 µM
same,IC50,"glioma U87; Table 7, 72 h",54.6 ± 3.33 µM
same,IC50,"prostate cancer PC3; Table 6, 72 h",4.71 ± 0.66 µM
same,IC50,"prostate cancer PC3; Table 7, 72 h",4.71 ± 0.66 µM
"CC(C)NC(=O)OCc1c(COC(=O)NC(C)C)c2sc3ccccc3n2c1C1CC1 [Compound 20j, (1-Cyclopropylbenzo[d]pyrrolo[2,1-b]thiazole-2,3-diyl)bis(methylene)bis(iso-propyl-carbamate)]",IC50,"oral cancer OECM-1; Table 6, 72 h",9.67 ± 1.06 µM
same,IC50,[1]; [4],0.1 ± 0.01 µM
same,IC50,"[2]; Table 6, 72 h",20.4 ± 1.65 µM
same,IC50,"glioma U87; Table 6, 72 h",45.5 ± 6.19 µM
same,IC50,"prostate cancer PC3; Table 6, 72 h",13.4 ± 0.84 µM
same,"fold of cross-resistant vs IC50 of the parent cell line, CCRF-CEM/VBL",CCRF-CEM/VBL,9.00 ×
same,IC50,CCRF-CEM/VBL,0.9 ± 0.011 µM
same,IC50,CCRF-CEM/Taxol,0.73 ± 0.013 µM
same,"fold of cross-resistant vs IC50 of the parent cell line, CCRF-CEM/Taxol",CCRF-CEM/Taxol,7.30 ×
"Cc1c(CO)c(CO)c2sc3ccccc3n12 [Compound 18a, (1-Methylbenzo[d]pyrrolo[2,1-b]thiazole-2,3-diyl)dimethanol]",IC50,"breast carcinoma MX-1; Homo sapiens, Table 6, 72 h",7.1 ± 0.037 µM
same,IC50,[1]; [6],0.97 ± 0.03 µM
same,IC50,"CCRF-CEM/VBL; Homo sapiens, CCRF-CEM",1.86 ± 0.01 µM
same,"fold of cross-resistant vs IC50 of the parent cell line, CCRF-CEM/VBL",CCRF-CEM/VBL,1.91 ×
same,IC50,"CCRF-CEM/Taxol; Homo sapiens, CCRF-CEM",1.88 ± 0.007 µM
same,"fold of cross-resistant vs IC50 of the parent cell line, CCRF-CEM/Taxol",CCRF-CEM/Taxol,1.93 ×
same,IC50,"colon carcinoma HCT-116; Homo sapiens, HCT-116, Table 6, 72 h",4.44 ± 0.08 µM
"CCNC(=O)OCc1c(COC(=O)NCC)c2sc3ccccc3n2c1C1CC1 [Compound 19j, (1-Cyclopropylbenzo[d]pyrrolo[2,1-b]thiazole-2,3-diyl)bis(methylene)bis(ethylcarbamate)]",IC50,"oral cancer OECM-1; Table 6, 72 h",26.3 ± 4.44 µM
same,IC50,[1]; [4],0.17 ± 0.03 µM
same,IC50,"[2]; Table 6, 72 h",20.6 ± 1.89 µM
same,IC50,"glioma U87; Table 6, 72 h",74.5 ± 8.7 µM
same,IC50,"prostate cancer PC3; Table 6, 72 h",24.2 ± 2.96 µM
same,"fold of cross-resistant vs IC50 of the parent cell line, CCRF-CEM/VBL",CCRF-CEM/VBL,3.18 ×
same,IC50,CCRF-CEM/VBL,0.54 ± 0.008 µM
same,IC50,CCRF-CEM/Taxol,0.68 ± 0.004 µM
same,"fold of cross-resistant vs IC50 of the parent cell line, CCRF-CEM/Taxol",CCRF-CEM/Taxol,4.01 ×
"OCc1c(CO)c2sc3ccccc3n2c1C1CC1 [Compound 18j, (1-Cyclopropylbenzo[d]pyrrolo[2,1-b]thiazole-2,3-diyl)dimethanol]",IC50,oral cancer OECM-1; [5],7.12 ± 0.95 µM
same,IC50,[1]; [6],0.97 ± 0.07 µM
same,IC50,[2]; [7],13.3 ± 2.23 µM
same,IC50,"glioma U87; Homo sapiens, Table 6, 72 h",28.7 ± 4.32 µM
same,IC50,"prostate cancer PC3; Homo sapiens, Table 6, 72 h",10.7 ± 2.29 µM
same,IC50,"CCRF-CEM/VBL; Homo sapiens, CCRF-CEM",2.44 ± 0.01 µM
same,"fold of cross-resistant vs IC50 of the parent cell line, CCRF-CEM/VBL",CCRF-CEM/VBL,2.51 ×
same,IC50,"CCRF-CEM/Taxol; Homo sapiens, CCRF-CEM",2.31 ± 0.0048 µM
same,"fold of cross-resistant vs IC50 of the parent cell line, CCRF-CEM/Taxol",CCRF-CEM/Taxol,2.37 ×
